From ChEMBL document CHEMBL1681769, “Tetrahydroquinolin-3-yl carbamate glucocorticoid receptor agonists with reduced PEPCK activation” (Bioorg Med Chem Lett, 2011)

Key:
[1] = target: T1, Glucocorticoid receptor (Homo sapiens, UniProt P04150); format: cell-based, NHDF
T1 sequence (P04150 whole entry): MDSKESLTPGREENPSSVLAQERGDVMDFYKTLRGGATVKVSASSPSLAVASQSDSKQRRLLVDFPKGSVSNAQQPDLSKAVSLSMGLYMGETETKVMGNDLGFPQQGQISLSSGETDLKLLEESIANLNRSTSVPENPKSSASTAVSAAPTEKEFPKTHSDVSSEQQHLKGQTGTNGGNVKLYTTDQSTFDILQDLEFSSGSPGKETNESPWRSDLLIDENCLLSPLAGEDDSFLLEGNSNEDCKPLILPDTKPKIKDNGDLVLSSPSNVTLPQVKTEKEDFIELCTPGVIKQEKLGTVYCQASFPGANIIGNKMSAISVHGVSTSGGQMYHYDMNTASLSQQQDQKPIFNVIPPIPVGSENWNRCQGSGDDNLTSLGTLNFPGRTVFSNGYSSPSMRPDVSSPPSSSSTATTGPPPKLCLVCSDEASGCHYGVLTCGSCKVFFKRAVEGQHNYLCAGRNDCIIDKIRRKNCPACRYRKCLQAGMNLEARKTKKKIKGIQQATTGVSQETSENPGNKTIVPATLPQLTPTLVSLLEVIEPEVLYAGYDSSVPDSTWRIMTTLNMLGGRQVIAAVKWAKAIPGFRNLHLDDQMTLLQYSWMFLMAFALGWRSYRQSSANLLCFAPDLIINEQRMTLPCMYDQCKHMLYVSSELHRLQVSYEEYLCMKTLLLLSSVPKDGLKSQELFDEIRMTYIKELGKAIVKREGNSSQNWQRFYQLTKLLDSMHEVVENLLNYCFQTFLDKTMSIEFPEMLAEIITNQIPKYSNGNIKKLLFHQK
Description: Transrepression activity at GR expressed in NHDF cells assessed as IL-1beta-mediated IL-6 transcription by ELISA

[2] = target: T1, Glucocorticoid receptor; format: functional, cell-based, CV-1
Description: Agonist activity at GR expressed in african green monkey CV1 cells transfected with luciferase gene linked to MMTV promoter assessed as induction of luciferase transactivation activity

[3] = target: T1, Glucocorticoid receptor; format: cell-based, HepG2
Description: Transrepression activity at GR expressed in IL-1beta- and TNFalpha-stimulated HepG2 cells assessed as inhibition of NFKB- or AP-1 mediated E-selectin transcription by luciferase reporter gene assay

[4] = target: T1, Glucocorticoid receptor
Description: Displacement of radiolabeled Dexamethasone from GR

[5] = target: T1, Glucocorticoid receptor; format: functional, cell-based, H4IIEC3
Description: Agonist activity at GR expressed in rat H4IIEC3 cells assessed as induction of PEPCK transactivation by luciferase reporter gene assay

[6] = target: T2, Mineralocorticoid receptor (Homo sapiens, UniProt P08235); assay: Binding affinity to mineralocorticoid receptor
T2 sequence (P08235 whole entry): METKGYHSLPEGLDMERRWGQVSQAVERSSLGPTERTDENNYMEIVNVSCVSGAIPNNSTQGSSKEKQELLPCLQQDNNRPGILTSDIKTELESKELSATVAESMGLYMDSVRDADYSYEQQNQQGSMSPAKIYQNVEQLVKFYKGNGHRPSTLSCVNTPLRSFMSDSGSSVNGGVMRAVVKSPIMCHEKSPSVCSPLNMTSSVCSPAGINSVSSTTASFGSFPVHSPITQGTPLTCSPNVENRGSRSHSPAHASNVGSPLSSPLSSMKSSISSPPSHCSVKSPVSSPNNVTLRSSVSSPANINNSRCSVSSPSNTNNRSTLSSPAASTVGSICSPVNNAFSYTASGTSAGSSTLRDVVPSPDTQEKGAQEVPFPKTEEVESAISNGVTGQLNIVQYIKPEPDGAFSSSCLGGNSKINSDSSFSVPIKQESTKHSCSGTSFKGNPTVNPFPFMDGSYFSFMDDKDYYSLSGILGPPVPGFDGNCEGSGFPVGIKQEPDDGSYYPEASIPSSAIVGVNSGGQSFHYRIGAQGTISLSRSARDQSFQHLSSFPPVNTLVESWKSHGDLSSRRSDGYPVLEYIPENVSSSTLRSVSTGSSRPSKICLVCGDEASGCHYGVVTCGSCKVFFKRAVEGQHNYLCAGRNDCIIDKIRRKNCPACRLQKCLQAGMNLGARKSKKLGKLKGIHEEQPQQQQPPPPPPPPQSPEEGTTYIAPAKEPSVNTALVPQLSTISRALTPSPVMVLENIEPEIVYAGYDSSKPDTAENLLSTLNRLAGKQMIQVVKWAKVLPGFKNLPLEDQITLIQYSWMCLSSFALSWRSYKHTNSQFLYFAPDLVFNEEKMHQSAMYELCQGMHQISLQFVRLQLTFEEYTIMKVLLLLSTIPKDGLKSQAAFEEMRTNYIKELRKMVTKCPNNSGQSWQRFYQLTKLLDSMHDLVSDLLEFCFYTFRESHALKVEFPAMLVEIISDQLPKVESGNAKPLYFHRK

[7] = target: T3, Progesterone receptor (Homo sapiens, UniProt P06401); assay: Binding affinity to progesterone receptor
T3 sequence (P06401 whole entry): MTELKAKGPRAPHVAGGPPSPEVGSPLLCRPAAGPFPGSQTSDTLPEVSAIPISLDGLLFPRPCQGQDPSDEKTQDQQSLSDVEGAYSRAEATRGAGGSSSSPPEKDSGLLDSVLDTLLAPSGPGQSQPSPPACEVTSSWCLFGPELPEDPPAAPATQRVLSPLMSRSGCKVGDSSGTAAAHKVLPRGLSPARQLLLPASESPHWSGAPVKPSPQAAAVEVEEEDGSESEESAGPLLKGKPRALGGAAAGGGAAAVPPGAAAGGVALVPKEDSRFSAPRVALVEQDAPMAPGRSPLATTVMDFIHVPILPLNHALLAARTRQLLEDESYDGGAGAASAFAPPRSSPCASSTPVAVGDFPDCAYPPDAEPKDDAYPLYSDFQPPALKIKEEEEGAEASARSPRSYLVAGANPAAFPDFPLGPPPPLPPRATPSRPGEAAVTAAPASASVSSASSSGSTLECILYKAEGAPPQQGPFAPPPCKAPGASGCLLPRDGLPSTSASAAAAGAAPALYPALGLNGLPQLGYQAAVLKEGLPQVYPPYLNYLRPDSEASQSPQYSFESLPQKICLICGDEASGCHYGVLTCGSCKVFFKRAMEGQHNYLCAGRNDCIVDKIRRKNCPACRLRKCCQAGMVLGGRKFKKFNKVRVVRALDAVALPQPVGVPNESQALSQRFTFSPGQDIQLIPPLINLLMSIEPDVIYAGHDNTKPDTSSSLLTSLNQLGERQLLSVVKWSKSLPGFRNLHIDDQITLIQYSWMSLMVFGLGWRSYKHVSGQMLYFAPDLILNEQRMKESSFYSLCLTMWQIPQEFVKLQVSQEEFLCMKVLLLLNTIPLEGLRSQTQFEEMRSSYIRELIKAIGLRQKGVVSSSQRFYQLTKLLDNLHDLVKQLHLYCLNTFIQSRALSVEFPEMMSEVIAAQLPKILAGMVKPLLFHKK

Compound	IC50 [1] [nM]	EC50 [2] [nM]	IC50 [3] [nM]	Ki [4] [nM]	EC50 [5] [nM]	Ki [6] [nM]	Ki [7] [nM]
C[C@H]1c2c(cc(F)c(-c3cccc4cc[nH]c34)c2F)NC(C)(C)[C@@H]1OC(=O)Nc1ccccc1	> 1000	105	40	6.2	–	–	–
C[C@H]1c2c(cc(F)c(-c3cccc4c(Cl)c[nH]c34)c2F)NC(C)(C)[C@@H]1OC(=O)Nc1ccccc1	33	7.6	9.1	7.6	379	–	–
C[C@H]1c2c(cc(F)c(-c3cccc4cc[nH]c34)c2F)NC(C)(C)[C@@H]1OC(=O)N(C)c1ccccc1	> 1000	> 1000	> 1000	14.3	–	–	–
COc1ccc(NC(=O)O[C@@H]2[C@@H](C)c3c(cc(F)c(-c4cccc5cc[nH]c45)c3F)NC2(C)C)cc1Cl	31	11	7.5	11.6	687	–	–
COc1ccc(NC(=O)O[C@@H]2[C@@H](C)c3c(cc(F)c(-c4cccc5c(Cl)c[nH]c45)c3F)NC2(C)C)cc1Cl	12	5.8	5.7	6.7	283	–	–
C[C@H]1c2c(cc(F)c(-c3cccc4cc[nH]c34)c2F)NC(C)(C)[C@@H]1OC(=O)Nc1ccc2c(c1)OCO2	50	18	8.5	12.2	874	–	–
C[C@H]1c2c(cc(F)c(-c3cccc4cc[nH]c34)c2F)NC(C)(C)[C@@H]1OC(=O)Nc1ccc(C#N)cc1	16	21	10	16.1	–	–	–
C[C@H]1c2c(cc(F)c(-c3cccc4c(Cl)c[nH]c34)c2F)NC(C)(C)[C@@H]1OC(=O)Nc1ccc(C#N)cc1	5	5.1	8.1	13.7	272	–	–
C[C@H]1c2c(cc(F)c(-c3cccc4cc[nH]c34)c2F)NC(C)(C)[C@@H]1OC(=O)Nc1ccc(Cl)cc1	29	178	44	70	–	–	–
COC(=O)c1ccc(NC(=O)O[C@@H]2[C@@H](C)c3c(cc(F)c(-c4cccc5cc[nH]c45)c3F)NC2(C)C)cc1	16	15	29	30	267	–	–
C[C@H]1c2c(cc(F)c(-c3cccc4cc[nH]c34)c2F)NC(C)(C)[C@@H]1OC(=O)Nc1ccc(N(C)C)cc1	39	3.5	8.4	5.1	361	–	–
C[C@H]1c2c(cc(F)c(-c3cccc4cc[nH]c34)c2F)NC(C)(C)[C@@H]1O (racemic)	–	–	–	–	98	–	–
CNC(=O)O[C@@H]1[C@@H](C)c2c(cc(F)c(-c3cccc4cc[nH]c34)c2F)NC1(C)C (racemic)	> 1000	39	10	3	199	–	–
CNC(=O)O[C@@H]1[C@@H](C)c2c(cc(F)c(-c3cccc4c(Cl)c[nH]c34)c2F)NC1(C)C (racemic)	52	21	12	2.2	463	–	–
C[C@H]1c2c(cc(F)c(-c3cccc4c(Cl)c[nH]c34)c2F)NC(C)(C)[C@@H]1OC(=O)NCc1ccccc1 (racemic)	40	17	44	6.8	454	656	160
CC(C)NC(=O)O[C@@H]1[C@@H](C)c2c(cc(F)c(-c3cccc4c(Cl)c[nH]c34)c2F)NC1(C)C (racemic)	17	89	45	7.8	361	378	213
C[C@H]1c2c(cc(F)c(-c3cccc4c(Cl)c[nH]c34)c2F)NC(C)(C)[C@@H]1OC(=O)NC1CCCCC1 (racemic)	23	70	15	4.3	435	2250	93
C[C@H]1c2c(cc(F)c(-c3cccc4cc[nH]c34)c2F)NC(C)(C)[C@@H]1OC(=O)N1CCCCC1 (racemic)	–	> 1000	> 1000	132	–	–	–
CC(=O)c1ccc(NC(=O)O[C@@H]2[C@@H](C)c3c(cc(F)c(-c4cccc5cc[nH]c45)c3F)NC2(C)C)cc1 (racemic)	31	16	23	2.9	182	1110	231
C[C@H]1c2c(cc(F)c(-c3cccc4cc[nH]c34)c2F)NC(C)(C)[C@@H]1OC(=O)Nc1cccc(C#N)c1 (racemic)	38	24	13	13.7	287	1470	662
CC(=O)c1cccc(NC(=O)O[C@@H]2[C@@H](C)c3c(cc(F)c(-c4cccc5cc[nH]c45)c3F)NC2(C)C)c1 (racemic)	22	29	49	9.4	333	3170	680
